From patent publication US3963707A, “Novel N-nitroso compounds, compositions containing such compounds, processes for their preparation and methods of treatment therewith, and novel intermediates” (Aktiebolaget Leo, priority 1973, dated 1976)

Each molecule was assayed on Hepatoma AH 130 (assay: in vivo). Details: additional compounds, result in words.
Parameters: species or system SPF Wistar rats
Text: The high activity against tumours is further illustrated in these experiments by comparisons with known antitumour agents used in the therapy. The therapeutic indexes (T.I.), i.e. the ratios LD50/ED50, are in all comparisons much more favourable with the compounds of the present invention.
LD50 is the dose that caused a 50 percent lethality of the animals, ED50 is the dose that caused a 50 percent reduction of tumour size.
The experimental design and the interpretation of the results have been in accordance with the standards set by the CCNSC (Cancer Chemotherapy Reports, January 1959 and December 1962), and by the DR&D (Cancer Chemotherapy Reports, September 1972, Vol. 3, No. 2).
The way of administration is by the intraperitoneal route (i.p.) in each case.
Experimental animals: SPF Wistar rats.
Tumour implant: 5 × 10^6 tumour cells i.p.
Therapy: One injection i.p. on the day following implantation.
Termination: The animals are killed on the 8th day.
Evaluation: Weights of tumours of test animals compared with those of control animals.
In the case of `C[C@]12CC[C@@H]3c4ccc(OC(=O)N(CCCl)N=O)cc4CC[C@H]3[C@@H]1CC[C@@H]2OP(=O)(O)Oc1ccccc1` [estradiol-17β-phenyl hydrogen phosphate-3-N-(2-chloroethyl)-N-nitroso carbamate], the anti-tumor activity is reported as “exhibit anti-tumor activity”.
In the case of `C#C[C@]1(OC(=O)N(CCCl)N=O)CC[C@H]2[C@@H]3CCC4=C[C@@H](OP(=O)(O)O)CC[C@@H]4[C@H]3CC[C@@]21C` [ethynodiol-17β-N-(2-chloroethyl)-N-nitroso carbamate-3β-dihydrogen phosphate], the anti-tumor activity is reported as “exhibit anti-tumor activity”.
`CC(=O)[C@H]1CC[C@H]2[C@@H]3CC=C4C[C@@H](OC(=O)N(C(=O)N(CCCl)N=O)C5CCC(C)CC5)CC[C@]4(C)[C@H]3CC[C@]12C` (stereo partly drawn) [pregnenolone-3β-/N^2-(4-methylcyclohexyl)-N^4-(2-chloroethyl)-N^4-nitroso allophanate/] was tested, and the anti-tumor activity was “exhibit anti-tumor activity”.
In the case of `C[C@]12CC[C@H]3[C@@H](CC=C4C[C@@H](OC(=O)N(CCCl)N=O)CC[C@@]43C)[C@@H]1CC[C@@H]2OC(=O)c1ccccc1` [androstenediol-17β-benzoate-3β-N-(2-chloroethyl)-N-nitroso carbamate], the anti-tumor activity is reported as “exhibit anti-tumor activity”.
`C#C[C@]1(OC(=O)N(CCCl)N=O)CC[C@H]2[C@@H]3CCC4=C[C@@H](OC(=O)CCCCCC)CC[C@@H]4[C@H]3CC[C@@]21C` [ethynodiol-17β-N-(2-chloroethyl)-N-nitroso carbamate-3β-oenanthate] was tested, and the anti-tumor activity was “exhibit anti-tumor activity”.
With `CC(=O)OCC(=O)[C@H]1CC[C@H]2[C@@H]3CCC4=CC(=O)CC[C@]4(C)[C@H]3[C@@H](OC(=O)N(CCCl)N=O)C[C@]12C` [corticosterone-21-acetate-11β-N-(2-chloroethyl)-N-nitroso carbamate] the anti-tumor activity was “exhibit anti-tumor activity”.
In the case of `C[C@@H]1CC2=CC(=O)CC[C@]2(C)[C@H]2CC[C@@]3(C)[C@@H](CC[C@]3(C)OC(=O)N(CCCl)N=O)[C@H]12` [7α,17α-dimethyltestosterone-17β-N-(2-chloroethyl)-N-nitroso carbamate], the anti-tumor activity is reported as “exhibit anti-tumor activity”.
For `C#C[C@]1(OC(=O)N(CCCl)N=O)CC[C@H]2[C@@H]3CCC4=C[C@@H](OP(=O)(O)OCC)CC[C@@H]4[C@H]3CC[C@@]21C` [ethynodiol-17β-N-(2-chloroethyl)-N-nitroso carbamate-3β-ethyl hydrogen phosphate], the anti-tumor activity was “exhibit anti-tumor activity”.
With `CCOP(=O)(O)O[C@H]1CC[C@H]2[C@@H]3CCc4cc(OC(=O)N(CCCl)N=O)ccc4[C@H]3CC[C@]12C` [estradiol-17β-ethyl hydrogen phosphate-3-N-(2-chloroethyl)-N-nitroso carbamate] the anti-tumor activity was “exhibit anti-tumor activity”.
With `COc1ccc2c(c1)CC[C@@H]1[C@@H]2CC[C@]2(C)[C@@H](OC(=O)NC(=O)N(CCCl)N=O)CC[C@@H]12` [estradiol-3-methylether-17β-/N^4-(2-chloroethyl)-N^4-nitroso allophanate/] the anti-tumor activity was “exhibit anti-tumor activity”.
For `C[C@]12C=CC(=O)C=C1CC[C@@H]1[C@@H]2[C@@H](OC(=O)N(CCCl)N=O)C[C@@]2(C)[C@H]1CC[C@]2(O)C(=O)COP(=O)(O)O` [prednisolone-11β-/N-(2-chloroethyl)-N-nitroso carbamate/-21-dihydrogenphosphate], the anti-tumor activity was “exhibit anti-tumor activity”.
`CC(=O)[C@@]1(OC(=O)N(CCCl)N=O)CC[C@H]2[C@@H]3C[C@H](C)C4=CC(=O)CC[C@]4(C)[C@H]3CC[C@@]21C` [6α-methyl-17α-hydroxy-progesterone,17α-N-(2-chloroethyl)-N-nitroso carbamate] was tested, and the anti-tumor activity was “exhibit anti-tumor activity”.
`CC(=O)O[C@H]1C(=O)C[C@H]2[C@@H]3CCc4cc(OC(=O)N(CCCl)N=O)ccc4[C@H]3CC[C@]12C` [estra-1,3,5(10)-triene-3,17β-diol-16-one,17β-acetate-3-N-(2-chloroethyl)-N-nitroso carbamate] was tested, and the anti-tumor activity was “exhibit anti-tumor activity”.
In the case of `C[C@]12C=CC(=O)C=C1CC[C@@H]1[C@@H]2[C@@H](OC(=O)N(CCCl)N=O)C[C@@]2(C)[C@H]1CC[C@]2(O)C(=O)CO` [prednisolone-11β-N-(2-chloroethyl)-N-nitroso carbamate], the anti-tumor activity is reported as “exhibit anti-tumor activity”.
In the case of `C#C[C@]1(OC(=O)N(CCCl)N=O)CC[C@H]2[C@@H]3CCC4=C[C@@H](O)CC[C@@H]4[C@H]3CC[C@@]21C` [ethynodiol-17β-N-(2-chloroethyl)-N-nitroso carbamate], the anti-tumor activity is reported as “exhibit anti-tumor activity”.
`C[C@@]12C=CC[C@H]1[C@@H]1CCc3cc(OC(=O)N(CCCl)N=O)ccc3[C@H]1CC2` [estra-1,3,5(10),16-tetraen-3-ol,3-N-(2-chloroethyl)-N-nitroso carbamate] was tested, and the anti-tumor activity was “exhibit anti-tumor activity”.
`C#C[C@]1(OC(=O)N(CCCl)N=O)CC[C@H]2[C@@H]3CCC4=CC(=O)CC[C@@H]4[C@H]3CC[C@@]21CC` [17α-ethynyl-18-methyl-19-nortestosterone-17β-N-(2-chloroethyl)-N-nitroso carbamate] was tested, and the anti-tumor activity was “exhibit anti-tumor activity”.
`C[C@]12CC[C@@H](OC(=O)N(CCF)N=O)C[C@H]1CC[C@@H]1[C@@H]2CC[C@]2(C)C(=O)CC[C@@H]12` [etiocholanolone-3α-N-(2-fluoroethyl)-N-nitroso carbamate] was tested, and the anti-tumor activity was “exhibit anti-tumor activity”.
For `C#C[C@]1(OC(C)=O)CC[C@H]2[C@@H]3CCC4=C[C@@H](OC(=O)N(CCCC)C(=O)N(CCCl)N=O)CC[C@@H]4[C@H]3CC[C@@]21C` [ethynodiol-17β-acetate-3β-/N^2-n-butyl-N^4-(2-chloroethyl)-N^4-nitroso allophanate/], the anti-tumor activity was “exhibit anti-tumor activity”.
For `C=CC[C@]1(OC(=O)N(CCCl)N=O)CC[C@H]2[C@@H]3CCC4=CCCC[C@@H]4[C@H]3CC[C@@]21C` [17α-allyl-estr-4-en-17β-ol,17β-N-(2-chloroethyl)-N-nitroso carbamate], the anti-tumor activity was “exhibit anti-tumor activity”.
In the case of `CC(C)[C@@H](C)/C=C/[C@@H](C)[C@H]1CC[C@H]2C3=CC=C4C[C@@H](OC(=O)N(CCCl)N=O)CC[C@]4(C)[C@H]3CC[C@]12C` [ergosterol-3β-N-(2-chloroethyl)-N-nitroso carbamate], the anti-tumor activity is reported as “exhibit anti-tumor activity”.
In the case of `C#C[C@]1(OC(=O)N(CCCl)N=O)CC[C@H]2[C@@H]3CCC4=C[C@@H](OP(=O)(O)Oc5ccccc5)CC[C@@H]4[C@H]3CC[C@@]21C` [ethynodiol-17β-N-(2-chloroethyl)-N-nitroso carbamate-3β-phenylhydrogen phosphate], the anti-tumor activity is reported as “exhibit anti-tumor activity”.
`CC(=O)[C@H]1CC[C@H]2[C@@H]3CC=C4C[C@@H](OC(=O)N(CCF)N=O)CC[C@]4(C)[C@H]3CC[C@]12C` [pregnenolone-3β-N-(2-fluoroethyl)-N-nitroso carbamate] was tested, and the anti-tumor activity was “exhibit anti-tumor activity”.
With `CC1CCC(N(C(=O)O[C@H]2CC[C@@]3(C)C(=CC[C@@H]4[C@@H]3CC[C@]3(C)C(=O)CC[C@@H]43)C2)C(=O)N(CCCl)N=O)CC1` (stereo partly drawn) [dehydroepiandrosterone-3β-/N^2-(4-methylcyclohexyl)-N^4-(2-chloroethyl)-N^4-nitroso allophanate/] the anti-tumor activity was “exhibit anti-tumor activity”.
In the case of `C#C[C@]1(OC(C)=O)CC[C@H]2[C@@H]3CCC4=C[C@@H](OC(=O)N(C)C(=O)N(CCCl)N=O)CC[C@@H]4[C@H]3CC[C@@]21C` [ethynodiol-17β-acetate-3β-/N^2-methyl-N^4-(2-chloroethyl)-N^4-nitroso allophanate/], the anti-tumor activity is reported as “exhibit anti-tumor activity”.
For `C[C@]12CCC(=O)C=C1CC[C@H]1[C@@H]3CC[C@](C)(OC(=O)N(CCCl)N=O)[C@@]3(C)C[C@H](O)[C@@]12F` [9α-fluoro-11β-hydroxy-17α-methyltestosterone-17β-N-(2-chloroethyl)-N-nitroso carbamate], the anti-tumor activity was “exhibit anti-tumor activity”.
In the case of `CC(C)CCC[C@@H](C)[C@H]1CC[C@H]2[C@@H]3CC=C4C[C@@H](OC(=O)N(CCCl)C(=O)N(CCCl)N=O)CC[C@]4(C)[C@H]3CC[C@]12C` [cholesterol-3β-/N^2,N^4-bis (2-chloroethyl)-N^4-nitroso allophanate/], the anti-tumor activity is reported as “exhibit anti-tumor activity”.
`CC(C)CCC[C@@H](C)[C@H]1CC[C@H]2[C@@H]3CC=C4C[C@@H](OC(=O)N(CCF)N=O)CC[C@]4(C)[C@H]3CC[C@]12C` [cholesterol-3β-N-(2-fluoroethyl)-N-nitroso carbamate] was tested, and the anti-tumor activity was “exhibit anti-tumor activity”.
`C[C@]12CC[C@H]3[C@@H](CC=C4C[C@@H](OC(=O)N(CCCl)N=O)CC[C@@]43C)[C@@H]1CC[C@@H]2OP(=O)(O)Oc1ccccc1` [androstenediol-3β-/N-(2-chloroethyl)-N-nitroso carbamate/-17β-phenyl hydrogen phosphate] was tested, and the anti-tumor activity was “exhibit anti-tumor activity”.
`CCOP(=O)(O)O[C@H]1CC[C@H]2[C@@H]3CC=C4C[C@@H](OC(=O)N(CCCl)N=O)CC[C@]4(C)[C@H]3CC[C@]12C` [androstenediol-3β-/N-(2-chloroethyl)-N-nitroso carbamate/-17β-ethyl hydrogen phosphate] was tested, and the anti-tumor activity was “exhibit anti-tumor activity”.
For `COc1ccc2c(c1)CC[C@@H]1[C@@H]2CC[C@]2(C)[C@@H](OC(=O)N(C)C(=O)N(CCCl)N=O)CC[C@@H]12` [estradiol-3-methylether-17β-/N^2-methyl-N^4-(2-chloroethyl)-N^4-nitroso allophanate], the anti-tumor activity was “exhibit anti-tumor activity”.
For `CC(=O)[C@H]1CC[C@H]2[C@@H]3CC=C4C[C@@H](OC(=O)N(CCCl)C(=O)N(CCCl)N=O)CC[C@]4(C)[C@H]3CC[C@]12C` [pregnenolone-3β-/N^2,N^4-bis (2-chloroethyl)-N^4-nitroso allophanate/], the anti-tumor activity was “exhibit anti-tumor activity”.
